Experimental data reported in article PMC2685009, “Identification and Characterization of Inhibitors of Human Apurinic/apyrimidinic Endonuclease APE1” (PLoS ONE, 2009).

Experiments:
APE1 [1] = biological target: T1, APE1 (Homo sapiens, UniProt P27695); test: qHTS fluorogenic AP site incision assay (TAMRA/BHQ-2 red substrate, 1536-well); type: biochemical; details: 50 nM substrate, 0.75 nM APE1; read-out: qHTS IC50 (primary screen, APE1)
T1 construct: made in house
Protocol: Recombinant human APE1 and E. coli EndoIV were purified as previously described. Deoxyoligonucleotides containing a tetrahydrofuran (THF) AP site analog, carboxytetramethyl rhodamine (TAMRA), or Black Hole Quencher-2 (BHQ-2), as appropriate (see Figure 1), were purchased from Biosearch Technologies, Inc., (Novato, CA). To create double-stranded DNA substrates, equal volumes of 200 µM solutions of the respective strands in reaction buffer were mixed and incubated at 95°C for 5 min. The annealing mixture was allowed to cool gradually to room temperature. Annealing and assay experiments were performed in the following buffer: 50 mM Tris pH 7.5, 25 mM NaCl, 2 mM MgCl2, 1 mM DTT, 0.01% Tween-20.
Initial optimizations were carried out in 384-well format at a 40 µL total reaction volume. Briefly, 30 µL of APE1 were pipetted into the plate and incubated at room temperature for 10 min; subsequently, 10 µL of substrate were added to start the reaction. The final assay concentrations of the enzyme and substrate were 0.75 nM and 50 nM, respectively. Kinetic fluorescence data were collected on a ViewLux high-throughput CCD imager (Perkin Elmer, Waltham, MA) equipped with standard FITC (excitation filter 480 nm and emission filter 530 nm) or BODIPY (excitation filter 525 nm and emission filter 598 nm) optics.
Three µl of reagents (buffer in columns 3 and 4 as negative control and APE1 in columns 1, 2, 5–48) were dispensed into a 1536-well plate. Compounds (DMSO solutions) and control (DMSO only) (23 nL) were transferred via Kalypsys pintool equipped with 1536-pin array. The plate was incubated for 15 min at room temperature, and then 1 µL of substrate (50 nM final concentration) was added to start the reaction. Library plates were screened from the lowest to highest concentration.
Screening data were corrected and normalized, and concentration–effect relationships were derived by using in-house developed, publicly available algorithms (http://www.ncgc.nih.gov/pub/openhts/curvefit/). Percent activity was computed after normalization against the uninhibited, or neutral, control (64 wells, entire columns 1 and 2) and the no-enzyme, or 100% inhibited, control (64 wells, entire columns 3 and 4), respectively. A four parameter Hill equation was fitted to the concentration-response data by minimizing the residual error between the modeled and observed responses.

E. coli EndoIV = biological target: T2, E. coli EndoIV (Escherichia coli, UniProt P0A6C1); test: E. coli Endonuclease IV (EndoIV) profiling assay; type: biochemical
T2 construct: made in house
Protocol: EndoIV enzyme and substrate (same as that used with APE1) optimization tests were initially performed at a 40 µL final volume in a 384-well format. Reaction concentrations of 2 nM EndoIV and 50 nM DNA substrate were selected for subsequent experiments. For running the assay in 1536-well format, the same protocol as described for APE1 above was followed.

[2] = set-up: method as in PMID 7019686; details: cited from earlier work
[3] = test system: AP site cleavage activity of HeLa whole cell extract; test: Whole cell extract AP endonuclease activity assay (HeLa); type: biochemical, human; details: inhibitor at 100 µM
Protocol: (§1) The radiotracer assay was performed essentially as described. In brief, prioritized candidate inhibitor compounds from the qHTS assay were incubated at various concentrations (100 µM data shown) with APE1 (100 pg) at room temperature for 15 min in 25 mM Tris pH 7.5, 25 mM NaCl, 1 mM MgCl2, 1 mM DTT and 0.01% Tween-20. At that time, 0.5 pmol ^32P-radiolabeled THF-containing 34 mer double-stranded DNA substrate was added. Incision reactions were then carried out immediately at 37°C for 10 min in a final volume of 10 µL. After the addition of an equal volume of stop buffer (0.05% bromophenol blue and xylene cynol, 20 mM EDTA, 95% formamide), the radiolabeled substrate and product were separated on a standard polyacrylamide denaturing gel and quantified by phosphorimager analysis.
(§2) HEK 293T or HeLa cells – maintained in DMEM with 10% fetal bovine serum and 1% Penicillin-Streptomycin – were harvested, washed with 1× PBS, re-suspended in cold 222 mM KCl, incubated on ice for 30 min, and clarified by centrifugation at 12,000×g for 15 min at 4°C [23]. The supernatant (whole cell extract) was retained, the protein concentration determined using the Bio-Rad Bradford reagent, and aliquots were stored at −80°C. AP endonuclease activity assays were performed with or without candidate inhibitor compounds as described above, except 60 ng HEK 293T or 80 ng of HeLa whole cell extract was used.

[4] = biological target: unlabeled double-stranded DNA substrate; test: ThO dye-displacement assay (DNA binding); details: 50 nM DNA, 250 nM ThO
APE1 [5] = biological target: T1, APE1; test: Radiotracer (32P, gel-based) incision assay; type: biochemical; details: range of inhibitor concentrations, data not shown; read-out: approximate IC50 in radiotracer assay
HeLa cells = test: AP site measurement in chromosomal DNA; type: cell-based, human
Protocol: HeLa cells were treated as above, except only at 5 µM inhibitor where indicated. Following exposure, chromosomal DNA was isolated and steady-state AP site levels were measured using the DNA Damage Quantification Kit from Dojindo Molecular Technologies, Inc. (Gaithersburg, MD) as previously described.

[6] = test system: AP site cleavage activity of HEK 293T whole cell extract; test: Whole cell extract AP endonuclease activity assay (HEK 293T); type: biochemical, human; details: inhibitor at 100 µM
Protocol: as §1, §2

T1 sequence (P27695 whole entry): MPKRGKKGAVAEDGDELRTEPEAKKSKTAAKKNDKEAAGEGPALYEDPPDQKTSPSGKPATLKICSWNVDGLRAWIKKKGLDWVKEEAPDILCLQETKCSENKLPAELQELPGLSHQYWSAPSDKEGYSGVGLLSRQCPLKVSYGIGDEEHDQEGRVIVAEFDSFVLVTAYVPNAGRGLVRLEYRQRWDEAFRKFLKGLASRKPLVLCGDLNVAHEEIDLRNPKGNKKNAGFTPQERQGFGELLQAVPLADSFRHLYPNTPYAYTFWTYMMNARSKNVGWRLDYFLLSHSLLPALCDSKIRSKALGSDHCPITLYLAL

Compound: O=c1c(O)c(-c2cc(O)c(O)c(O)c2)oc2cc(O)cc(O)c12 [myricetin]
- IC50 (APE1 [1]): 320 nM
- activity against EndoIV compared with APE1 (in words) (E. coli EndoIV): completely inactive or weakly active
- IC50 (E. coli EndoIV; 2 nM EndoIV, 50 nM substrate, read-out: Endo IV IC50 (E. coli EndoIV profiling)): > 57000 nM
- mutagenesis in the Ames Test [2]: promote mutagenesis
- inhibition of total AP site cleavage activity [3]: ≥ 80%
- IC50 [4]: 3500 nM
- IC50 (APE1 [5]): < 500 nM
- AP site damage, inhibitor alone (HeLa cells; 5 µM inhibitor alone, relative to control cells): increased AP site damage relative to the control cells
- AP site damage, inhibitor plus MMS (HeLa cells; 5 µM inhibitor plus MMS): potentiated the genotoxic potential of MMS
- inhibition of total AP site cleavage activity [6]: ≥ 80%
